Data from patent publication US20090170917A1, “Acid Mimic Compounds for the Inhibition of Isoprenyl-S-Cysteinyl Methyltransferase” (priority 2007, published 2009).

Tests used:
[1] = system: TPA-treated mouse ears (erythema); experiment: Mouse ear model of TPA-induced contact inflammation: erythema inhibition (Δa* redness, chroma meter); format: in vivo; details: for erythema inhibition (statement in words): in vivo activity, no dose stated; for % Inhibition Erythema: TPA-treated mouse ear, 24 hours
Excerpt: (§1) G. et al., Anti-inflammatory Drugs, Clin. Pharmacol. Ther. 16, 900-4 (1974); Young et al., Tachyphylaxis in 12-Otetradecanoylphorbolacetate-and Arachidonic Acid-Induced Ear Edema; J. Invest. Dermatol. 80:48-52, (1983); Tramposch et al., In Vivo Models of Inflammation, (Morgan D W, Marshall L A eds), Birkhaüser Verlag: Basel, pp 179-204, 1999; and Gordon et al., Topical N-Acetyl-S-Farnesyl-L-Cysteine Inhibits Mouse Skin Inflammation, and Unlike Dexamethasone, Its Effects Are Restricted to the Application Site, J. Invest. Dermatol., 128(3):643-54, 2008 March)]. Moreover, the mouse ear model has been used by various groups to identify and compare members of differing classes of anti-inflammatory agents with multiple mechanisms of action (reviewed in Tramposch et al., 1999, supra).
Another well documented biomarker of skin inflammation is skin redness, termed erythema, which is caused by capillary congestion and dilation in response to various chemical and environmental insults (see Denig, N. I. et al., Irritant Contact Dermatitis. Clues to Causes, Clinical Characteristics, and Control, Postgrad Med., May (1998); 103(5):199-200, 207-8, 212-3). […] The percent inhibition of erythema was determined by taking the average Δa* redness value of compound-treated ears and dividing it by the average Δa* value of 12 ears that only received TPA and subtracting that value from 100%. These values were corrected for the Δa* value of non TPA-treated mouse ears of littermate controls. […] Gordon et al., “Topical N-acetyl-5-farnesyl-L-cysteine Inhibits Mouse Skin Inflammation, and Unlike Dexamethasone, its Effects Are Restricted to the Application Site”, J. Invest. Derm., Vol. 128 pp. 643-654 (2008).

[2] = system: TPA-treated mouse ears (edema); experiment: Mouse ear model of TPA-induced contact inflammation: edema inhibition (ear thickness); format: in vivo; details: for edema inhibition (statement in words): in vivo activity, no dose stated; for % Inhibition Edema: TPA-treated mouse ear, 24 hours
Excerpt: as §1
The protocol for inducing in vivo acute contact inflammation on the ears of live mice has been described elsewhere (reviewed in Tramposch, 1999, supra). In brief, mice were sedated and their ears were treated with 1.2 μg/20 uL TPA (i.e., tetradecanoylphorbol-13-acetate). […] After 24 hours, the mice were sacrificed and edema was measured by taking micrometer readings of each ear. The percent inhibition of edema was determined by taking the average ear thickness of compound-treated ears and dividing it by the average thickness of 12 ears that only received TPA and subtracting that value from 100%. These values were corrected for the thickness of normal, non TPA-treated mouse ears of littermate controls. […] ED50 values were calculated as described in Gordon et al., “Topical N-acetyl-5-farnesyl-L-cysteine Inhibits Mouse Skin Inflammation, and Unlike Dexamethasone, its Effects Are Restricted to the Application Site”, J. Invest. Derm., Vol. 128 pp. 643-654 (2008).

[3] = system: dermal neutrophil infiltration, neutrophil marker myeloperoxidase (MPO); experiment: Mouse ear model of TPA-induced contact inflammation: MPO inhibition (dermal neutrophil infiltration); format: in vivo; details: for MPO (myeloperoxidase) inhibition (statement in words): in vivo activity, no dose stated; for % Inhibition MPO: TPA-treated mouse ear, 24 hours
Excerpt: as §1
To assay for inhibition of dermal neutrophil infiltration by S-isoprenyl and S-farnesyl cysteine compounds, a standard method was used (see Bradley et al., 1982, supra; Young et al., 1983, supra; De Young et al, “Edema and Cell Infiltration in the Phorbol Ester-treated Mouse Ear are Temporally Separate and can be Differentially Modulated by Pharmacologic Agents”, Agents Actions, 26(3-4): 335-41 (March 1989); and Rao et al. (1993) Comparative Evaluation of Arachidonic Acid (AA)-and Tetradecanoylphorbol Acetate (TPA)-Induced Dermal Inflammation, Inflammation 17:723-41). Briefly, we homogenized 6 mm biopsy punches taken from both compound-treated ears as well as TPA-treated and non-treated control groups. We quantitated the levels of MPO by a calorimetric reaction that was measured spectrophotometrically. The percent inhibition of neutrophil infiltration by each S-isoprenyl and S-farnesyl cysteine compound was determined by comparing the average MPO levels in the presence and absence of these compounds. […] Gordon et al., “Topical N-acetyl-5-farnesyl-L-cysteine Inhibits Mouse Skin Inflammation, and Unlike Dexamethasone, its Effects Are Restricted to the Application Site”, J. Invest. Derm., Vol. 128 pp. 643-654 (2008).

[4] = target: membrane-associated isoprenyl-5-cysteinyl methyltransferase (Homo sapiens, UniProt O60725); details: background statement; cited from earlier work
[5] = system: neutrophil, macrophage, and platelet responses; details: in vitro, background statement; cited from earlier work
dermal inflammation = details: mice, background statement; cited from earlier work

membrane-associated isoprenyl-5-cysteinyl methyltransferase, sequence (O60725 whole entry): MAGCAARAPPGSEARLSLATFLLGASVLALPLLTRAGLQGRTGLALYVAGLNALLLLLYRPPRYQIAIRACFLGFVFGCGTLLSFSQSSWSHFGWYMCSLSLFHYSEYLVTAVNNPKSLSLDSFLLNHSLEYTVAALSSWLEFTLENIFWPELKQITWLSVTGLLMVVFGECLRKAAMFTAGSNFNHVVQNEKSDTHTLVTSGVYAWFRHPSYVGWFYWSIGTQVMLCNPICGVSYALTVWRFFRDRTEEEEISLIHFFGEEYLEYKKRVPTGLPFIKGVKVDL

Compound	erythema inhibition (statement in words) [1]	% Inhibition Erythema ([1]; topical dose 0.8 mg/20 μL)	edema inhibition (statement in words) [2]	% Inhibition Edema ([2]; topical dose 0.8 mg/20 μL)	MPO (myeloperoxidase) inhibition (statement in words) [3]	% Inhibition MPO ([3]; topical dose 0.8 mg/20 μL)	inhibition of isoprenyl-S-cysteinyl methyltransferase (mode) [4]	block of neutrophil, macrophage and platelet responses [5]	reduction of dermal inflammation (dermal inflammation)	% Inhibition Erythema ([1]; topical dose 0.2 mg/20 μL)	% Inhibition Edema ([2]; topical dose 0.2 mg/20 μL)	% Inhibition MPO ([3]; topical dose 0.2 mg/20 μL)
CNNC(=O)[C@H](CSC/C=C(\C)CC/C=C(\C)CCC=C(C)C)NC(C)=O [Compound E]	erythema inhibition	— 7.68 ± 8.15%	edema inhibition	— 5.85 ± 7.02%	MPO (myeloperoxidase) inhibition	–	–	–	–	–	–	–
CC(=O)N[C@@H](CSC/C=C(\C)CC/C=C(\C)CCC=C(C)C)C(=O)NO [Compound B]	erythema inhibition	–	edema inhibition	— 33.64 ± 3.03%	MPO (myeloperoxidase) inhibition	— 87.45 ± 1.37%	–	–	–	–	–	–
CC(=O)N[C@@H](CSCC=C(C)CCC=C(C)CCC=C(C)C)C(=O)O [AFC, N-acetyl-5-farnesyl-L-cysteine]	–	–	–	–	–	–	competitive inhibitor	block some neutrophil, macrophage, and platelet responses in vitro	effectively reduces dermal inflammation in mice	–	–	–
CC(=O)N[C@@H](CSC/C=C(\C)CC/C=C(\C)CCC=C(C)C)C(=O)NNc1ccccc1 [Compound C]	erythema inhibition	— 13.41 ± 11.92%	edema inhibition	–	MPO (myeloperoxidase) inhibition	–	–	–	–	–	–	–
CC(=O)NNC(=O)[C@H](CSC/C=C(\C)CC/C=C(\C)CCC=C(C)C)NC(C)=O [Compound D]	erythema inhibition	–	–	–	MPO (myeloperoxidase) inhibition	–	–	–	–	–	–	–
CC(C)=CCC/C(C)=C/CC/C(C)=C/CSC[C@H](NC(=O)CCC(F)(F)F)C(=O)NN [Compound F]	erythema inhibition	–	edema inhibition	–	MPO (myeloperoxidase) inhibition	–	–	–	–	11.04 ± 7.28 — %	7.86 ± 0.98 — %	21.33 ± 12.68 — %
CC(=O)N[C@@H](CSC/C=C(\C)CC/C=C(\C)CCC=C(C)C)C(=O)NN [Compound A]	erythema inhibition	–	edema inhibition	— 42.36 ± 1.99%	MPO (myeloperoxidase) inhibition	— 93.53 ± 1.13%	–	–	–	–	–	–
